Results reported in patent publication US10464901B2, “Composition including benzene diamine derivative for preventing or treating degenerative brain diseases” (UNIST(ULSAN NATIONAL INSTITUTE OF SCIENCE AND TECHNOLOGY), priority 2017, dated 2019).

Tests used:
[1] = Antioxidant effect: free organic radical-scavenging activity (ABTS) using cell lysate; format: biochemical; settings: Table 1 summary of Example 3; symbols not defined
Experimental: It was examined whether the benzene diamine derivatives of the present disclosure have an antioxidant effect. It is known that reactive oxygen species induces oxidative stress in neuronal cells to cause neuronal cell death and causes protein misfolding to induce formation of Aβ aggregates. Therefore, compounds having antioxidant effects may be candidates for preventing or treating dementia.
Free organic radical-scavenging activity of the compound was determined according to a protocol of Cayman Chemical Company (Ann Arbor, Mich., USA) with slight modifications. For antioxidant analysis using a cell lysate, cells were seeded in a 6-well plate, and cultured until they reached 80-90% confluence. A cell lysate was prepared according to a known method, washed with a cold phosphate buffer solution (PBS; pH 7.4, GIBCO), and then harvested. Cell pellet was produced by centrifugation (2,000 g, 4° C., 10 min). This pellet was sonicated (5 sec pulse, 20 sec interval, three times) in 2 ml of cold assay buffer S13 (5 mM potassium phosphate, pH 7.4; 0.9% NaCl; 0.1% glucose) on ice. A cell lysate was centrifuged at 4° C. for 10 minutes at 5,000 g. A supernatant was removed, and left on ice until use. To the cell lysate supernatant (10 μl), the compound, metmyoglobin, ABTS (2,2′-azino-bis-3-ethylbenzothiazoline-6-sulfonic acid), and hydrogen peroxide were sequentially added. The mixture was incubated on a shaker at room temperature for 5 minutes, and absorbance at 750 nm was measured. The compound at a final concentration of 45, 90, 135, 180, 225, or 330 μM and Trolox (6-hydroxy-2,5,7,8-tetramethyl-chroman-2-carboxylic acid, dissolved in EtOH) were used. Antioxidant activity was calculated according to the measured absorbance [% inhibition=100×(A0−A)/A0, A0 represents absorbance of the supernant of the cell lysate]. Each measurement was repeated in triplicate.

[2] = tested on: APP/PS/Tau dementia mouse model; experiment: Morphological change of brain of dementia mouse model; format: in vivo; settings: oral 100 μg/kg twice a week for 2 months, FIG. 6
Excerpt: In order to examine therapeutic effects of the benzene diamine derivatives on dementia, dementia mouse models were orally administered with the benzene diamine derivative, and morphological changes in the brains thereof were examined.
In detail, APP/PS/Tau was purchased as the dementia mouse model from Jackson lab (BAR HARBOR, USA), and APP/Tau female and APP/PSen1de9 purchased from Taconic (Hudson, USA) were cross-mated for 6 generations, and 4-month-old mouse models were obtained from F1. The dementia mouse models were divided into groups of 6 mice, and among the dementia mouse models, a control group was orally administered with a vehicle (PBS) for 2 months, and an experimental group was orally administered with 100 μg/kg/0.1 ml of N^1-(pyridin-2-ylmethyl)benzene-1,4-diamine (Compound 2) twice a week for 2 months. Thereafter, the mice were sacrificed, and their brains were removed. Their longitudinal sections were cut, and morphological changes were examined. For comparison, a normal mouse was sacrificed and its brain was removed. Its longitudinal section was cut, and morphological changes were examined.

monomeric Aβ42 = biological target: T1, monomeric Aβ42 (Homo sapiens, UniProt P05067); experiment: Brain tissue immunohistofluorescence, monomeric Aβ (BAM-10) and plaques (MX04); format: in vivo, mouse; settings: oral 100 μg/kg twice a week for 2 months, confocal, FIG. 7
T1 construct: from tissue; host or cells: brain of dementia mouse models
Experimental: Overexpression of monomeric Aβ may increase formation of oligomeric Aβ, Aβ aggregates, and amyloid plaques to cause neuronal cytotoxicity. Therefore, anatomical analysis of the brain tissue was performed to examine whether the benzene diamine derivatives of the present disclosure inhibit monomeric Aβ formation in dementia mouse models.
As in Experimental Example 1, a control group was orally administered with a vehicle for 2 months, and an experimental group was orally administered with 100 μg/kg/0.1 ml of N^1-(pyridin-2-ylmethyl)benzene-1,4-diamine (Compound 2) twice a week for 2 months. The brain was taken from a non-treated dementia mouse model (4 months), and the brains of the control group and the experimental group were also taken after the administration. Each mouse was anesthetized with ketamine, and then the skull was incised. The brain was then embedded in paraffin and subjected to immunohistofluorescence staining. The brain tissues were fixed in formalin and sectioned at a thickness of 50 μm by using a vibrotome, and each tissue was placed on a glass slice. For comparison of monomeric Aβ, BAM-10 monoclonal anti-Aβ primary antibody labeled with QD525 probe (green fluorescence) was used to examine changes in the quantity of monomeric Aβ42. […]

T1 sequence (P05067 672-713 limits assumed): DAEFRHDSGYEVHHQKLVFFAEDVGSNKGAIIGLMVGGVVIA

For Nc1ccc(NCc2ccccn2)cc1 [Compound 2, N^1-(pyridin-2-ylmethyl)benzene-1,4-diamine], the “Reactive oxygen species (antioxidant effect)” value [1] was “◯ (better effect than TEAC)”, the “brain morphology / longitudinal section” value [2] was “brain morphology similar to that of the normal group” and the “monomeric Aβ formation in cortex and hippocampus” value (monomeric Aβ42) was “monomeric Aβ formation was hardly observed”. For the same compound, the “plaques (MX04) in brain” value (monomeric Aβ42) was “plaques were hardly observed”.
